Several values for one entry are separate records, joined by “and”; a condition that tells them apart may be missing. Equal entries are not always repeated. Where two headings read alike, the source gives them in different places.
How the values were obtained:
Assay in all cases: Synergy test, high resolution MIC microtiter plate assay
Type in all cases: cell-based
[1] = tested on: Staphylococcus aureus (S. aureus—ATCC #6538); details: for MIC of component acting alone (end point): S. aureus, Ag-polymer on active silver ion basis; for MIC: Staphylococcus aureus, read-out: MIC of component acting alone (end point)
Source text: (§1) One measure of synergism is the industrially accepted method described by Kull, F. C.; Eisman, P. C.; Sylwestrowicz, H. D. and Mayer, R. L., in Applied Microbiology 9:538-541 (1961), using the ratio determined by the formula: Ca/CA+Cb/CB=Synergy Index (“SI”) wherein:
(§2) CA=concentration of compound A (first component) in ppm, acting alone, which produced an end point (MIC of Compound A).
(§3) Ca=concentration of compound A in ppm, in the mixture, which produced an end point.
(§4) CB=concentration of compound B (second component) in ppm, acting alone, which produced an end point (MIC of Compound B).
(§5) Cb=concentration of compound B in ppm, in the mixture, which produced an end point.
(§6) When the sum of Ca/CA and Cb/CB is greater than one, antagonism is indicated. […] The lower the SI, the greater the synergy shown by that particular mixture. The minimum inhibitory concentration (MIC) of an antimicrobial compound is the lowest concentration tested under a specific set of conditions that prevents the growth of added microorganisms.
(§7) Synergy tests were conducted using standard microtiter plate assays with media designed for optimal growth of the test microorganism. Soybean Casein Digest Broth (Tryptic Soy Broth, TSB medium) or minimal salt medium supplemented with 0.2% glucose and 0.1% yeast extract (M9GY medium) was used for testing bacteria; Potato Dextrose Broth (PDB medium) was used for testing yeast and mold. In this method, a wide range of combinations of microbicides was tested by conducting high resolution MIC assays in the presence of various concentrations of the biocides. High resolution MICs were determined by adding varying amounts of microbicide to one column of a microtitre plate and doing subsequent ten-fold dilutions using an automated liquid handling system.
(§8) The bacteria were used at a concentration of about 1-6×10^6 bacteria per mL and the yeast and mold at 1-5×10^5 fungi per mL. These microorganisms are representative of natural contaminants in many consumer and industrial applications. […] (yeast and mold) or 30° C. (bacteria).

[2] = tested on: Aspergillus niger (A. niger—ATCC 16404); details: for MIC of component acting alone (end point): A. niger, Ag-polymer on active silver ion basis; for MIC: Aspergillus niger, read-out: MIC of component acting alone (end point)
Source text: as §1, §2, §3, §4, §5, §6, §7, §8

[3] = tested on: Pseudomonas aeruginosa (P. aeruginosa—ATCC #15442); details: for MIC of component acting alone (end point): P. aeruginosa, Ag-polymer on active silver ion basis
Source text: as §1, §2, §3, §4, §5, §6, §7, §8

[4] = tested on: Candida albicans (C. albicans—ATCC 10231); details: for MIC of component acting alone (end point): C. albicans, Ag-polymer on active silver ion basis; for Ca (Component A in combination): Hydrogen Peroxide combined with Ag-polymer formulation; for MIC: Candida albicans, read-out: MIC of component acting alone (end point)
Source text: as §1, §2, §3, §4, §5, §6, §7
(§9) […]. The bacteria were used at a concentration of about 1-6×10^6 bacteria per mL and the yeast and mold at 1-5×10^5 fungi per mL. These microorganisms are representative of natural contaminants in many consumer and industrial applications. […] (yeast and mold) or 30° C. (bacteria).
(§10) The end point values in the following examples for the silver-polymer complex are reported on an active silver ion basis.

[5] = tested on: Esherichia coli (E. coli—ATCC #8739); details: Ag-polymer on active silver ion basis
Source text: as §1, §2, §3, §4, §5, §6, §7, §9, §10

[6] = tested on: Samonella choleraesuis (S. choleraesuis—ATCC #10708); details: S. choleraesuis, contact time 48 hour; Ag-polymer on active silver ion basis
Source text: as §1, §2, §3, §4, §5, §6, §7
The synergy of the combinations of the present invention was determined against four bacteria, gram positive Staphylococcus aureus (S. aureus—ATCC #6538) and gram negative Pseudomonas aeruginosa (P. aeruginosa—ATCC #15442), Samonella choleraesuis (S. choleraesuis—ATCC #10708) and Esherichia coli (E. coli—ATCC #8739), a yeast, Candida albicans (C. albicans—ATCC 10231), and a mold, Aspergillus niger (A. niger—ATCC 16404). The bacteria were used at a concentration of about 1-6×10^6 bacteria per mL and the yeast and mold at 1-5×10^5 fungi per mL. These microorganisms are representative of natural contaminants in many consumer and industrial applications. […] (yeast and mold) or 30° C. (bacteria).
as §10

[7] = Table 13, 3-Iodo-2-propynyl butylcarbamate alone, contact time 24 hour
[8] = Table 13, 3-Iodo-2-propynyl butylcarbamate alone, contact time 48 hour
[9] = 5-Chloro-2-(2,4-dichlorophenoxy)phenol combined with Ag-polymer formulation, contact time 48 hour
[10] = Table 12, 5-Chloro-2-(2,4-dichlorophenoxy)phenol alone, contact time 24 hour
[11] = Table 12, 5-Chloro-2-(2,4-dichlorophenoxy)phenol alone, contact time 48 hour
[12] = Table 11, Glutaraldehyde alone, contact time 24 hour
[13] = Table 11, Glutaraldehyde alone, contact time 48 hour
[14] = Table 9, Hydrogen Peroxide alone, contact time 24 hour
[15] = Table 9, Hydrogen Peroxide alone, contact time 48 hour
[16] = Hydrogen Peroxide combined with Ag-polymer formulation, contact time 24 hour
[17] = Table 10, Sodium hypochlorite alone, as Free Cl2, contact time 24 hour
[18] = Table 10, Sodium hypochlorite alone, as Free Cl2, contact time 48 hour
[19] = Sodium hypochlorite (as Free Cl2) combined with Ag-polymer formulation, contact time 48 hour

CCCCNC(=O)OCC#CI [3-Iodo-2-propynyl butylcarbamate]
Ca (Component A alone) [1, 7]: 14
Ca (Component A alone) [1, 8]: 14
Ca (Component A alone) ([2]; Table 13, 3-Iodo-2-propynyl butylcarbamate alone, contact time 3 days): 0.4
Ca (Component A alone) ([2]; Table 13, 3-Iodo-2-propynyl butylcarbamate alone, contact time 7 days): 0.8
Ca (Component A in combination) ([3]; 3-Iodo-2-propynyl butylcarbamate combined with Ag-polymer formulation, contact time 24 hour): 850
Ca (Component A in combination) ([3]; 3-Iodo-2-propynyl butylcarbamate combined with Ag-polymer formulation, contact time 48 hour): 1050
Ca (Component A alone) [3, 7]: 1050
Ca (Component A alone) [3, 8]: 1300

Oc1cc(Cl)ccc1Oc1ccc(Cl)cc1Cl [5-Chloro-2-(2,4-dichlorophenoxy)phenol]
Ca (Component A in combination) [1, 9]: 9 and 7
Ca (Component A alone) [1, 10]: 9
Ca (Component A alone) [1, 11]: 11
Ca (Component A in combination) ([2]; 5-Chloro-2-(2,4-dichlorophenoxy)phenol combined with Ag-polymer formulation, contact time 3 days): 7
Ca (Component A alone) ([2]; Table 12, 5-Chloro-2-(2,4-dichlorophenoxy)phenol alone, contact time 3 days): 9
Ca (Component A alone) ([2]; Table 12, 5-Chloro-2-(2,4-dichlorophenoxy)phenol alone, contact time 7 days): 30
Ca (Component A in combination) ([3]; 5-Chloro-2-(2,4-dichlorophenoxy)phenol combined with Ag-polymer formulation, contact time 24 hour): 20
Ca (Component A in combination) [3, 9]: 30 and 20
Ca (Component A alone) [3, 10]: 30
Ca (Component A alone) [3, 11]: 43

O=c1[nH]sc2ccccc12 [Benzisothiazolin-3-one, reference compound]
MIC of component acting alone (end point) ([4]; contact time 24 hour): 30 ppm
MIC of component acting alone (end point) ([4]; contact time 48 hour): 30 ppm
MIC of component acting alone (end point) ([1]; contact time 24 hour): 20 ppm
MIC of component acting alone (end point) ([1]; contact time 48 hour): 20 ppm
MIC of component acting alone (end point) ([2]; contact time 3 days): 43 ppm
MIC of component acting alone (end point) ([2]; contact time 7 days): 53 ppm
MIC of component acting alone (end point) ([3]; contact time 24 hour): 4 ppm
MIC of component acting alone (end point) ([3]; contact time 48 hour): 7 ppm

O=CCCCC=O [Glutaraldehyde]
Ca (Component A alone) [4, 12]: 88
Ca (Component A alone) [4, 13]: 88
Ca (Component A alone) [1, 12]: 13
Ca (Component A alone) [1, 13]: 20
Ca (Component A in combination) ([2]; Glutaraldehyde combined with Ag-polymer formulation, contact time 3 days): 425
Ca (Component A in combination) ([2]; Glutaraldehyde combined with Ag-polymer formulation, contact time 7 days): 525
Ca (Component A alone) ([2]; Table 11, Glutaraldehyde alone, contact time 3 days): 525
Ca (Component A alone) ([2]; Table 11, Glutaraldehyde alone, contact time 7 days): 650
Ca (Component A in combination) ([3]; Glutaraldehyde combined with Ag-polymer formulation, contact time 24 hour): 13
Ca (Component A in combination) ([3]; Glutaraldehyde combined with Ag-polymer formulation, contact time 48 hour): 16
Ca (Component A alone) [3, 12]: 16
Ca (Component A alone) [3, 13]: 20

OO [Hydrogen Peroxide]
Ca (Component A in combination) ([4]; contact time 24 hour): 105 and 85
Ca (Component A in combination) ([4]; contact time 48 hour): 85
Ca (Component A alone) [4, 14]: 130
Ca (Component A alone) [4, 15]: 130
Ca (Component A in combination) [1, 16]: 53 and 39
Ca (Component A alone) [1, 14]: 66
Ca (Component A alone) [1, 15]: 180
Ca (Component A in combination) ([2]; Hydrogen Peroxide combined with Ag-polymer formulation, contact time 7 days): 1300 and 1050
Ca (Component A alone) ([2]; Table 9, Hydrogen Peroxide alone, contact time 3 days): 1300
Ca (Component A alone) ([2]; Table 9, Hydrogen Peroxide alone, contact time 7 days): 1750
Ca (Component A in combination) [3, 16]: 255
Ca (Component A in combination) ([3]; Hydrogen Peroxide combined with Ag-polymer formulation, contact time 48 hour): 390 and 315 and 255
Ca (Component A alone) [3, 14]: 315
Ca (Component A alone) [3, 15]: 525

Cn1sccc1=O [MIT, 2-methyl-4-isothiazolin-3-one, reference compound]
MIC ([4]; ATCC10231, 24 h): 288 µg/mL
MIC ([4]; ATCC10231, 48 h): 403 µg/mL
MIC ([1]; ATCC6538, 24 h): 34.5 µg/mL
MIC ([1]; ATCC6538, 48 h): 34.5 µg/mL
MIC ([2]; ATCC16404, 72 h): 493 µg/mL
MIC ([2]; ATCC16404, 168 h): 603 µg/mL
MIC ([3]; Pseudomonas aeruginosa, ATCC15442, 48 h, read-out: MIC of component acting alone (end point)): 24.7 µg/mL

OCl [Sodium hypochlorite]
Ca (Component A alone) [4, 17]: 0.9
Ca (Component A alone) [4, 18]: 2
Ca (Component A in combination) [1, 19]: 0.5
Ca (Component A alone) [1, 17]: 0.4
Ca (Component A alone) [1, 18]: 0.7
Ca (Component A alone) ([2]; Table 10, Sodium hypochlorite alone, as Free Cl2, contact time 3 days): 26
Ca (Component A alone) ([2]; Table 10, Sodium hypochlorite alone, as Free Cl2, contact time 7 days): 35
Ca (Component A in combination) ([3]; Sodium hypochlorite (as Free Cl2) combined with Ag-polymer formulation, contact time 24 hour): 0.5
Ca (Component A in combination) [3, 19]: 0.7
Ca (Component A alone) [3, 17]: 0.7
Ca (Component A alone) [3, 18]: 0.9

CC(C)(C)CC(C)(C)c1ccc(OCCOCC[N+](C)(C)Cc2ccccc2)cc1.[Cl-] [diisobutylphenoxyethoxyethyl dimethylbenzylammonium chloride, reference compound]
MIC of component acting alone (end point) ([5]; contact time 24 hour): 19.4 ppm
MIC of component acting alone (end point) ([4]; contact time 48 hour): 28.8 ppm
MIC of component acting alone (end point) ([1]; contact time 24 hour): 28.8 ppm
MIC of component acting alone (end point) ([1]; contact time 48 hour): 40.3 ppm
MIC of component acting alone (end point) ([2]; contact time 7 days): 40.3 ppm

C9-C15 alkyltolylmethyltrimethylammonium chloride [reference compound]
MIC of component acting alone (end point) ([5]; contact time 24 hour): 6 ppm
MIC of component acting alone (end point) ([5]; contact time 48 hour): 6 ppm
MIC of component acting alone (end point) ([4]; contact time 24 hour): 98 ppm
MIC of component acting alone (end point) ([1]; contact time 24 hour): 69 ppm
MIC of component acting alone (end point) ([2]; contact time 7 days): 493 ppm
MIC of component acting alone (end point) ([3]; contact time 24 hour): 19.4 ppm
MIC of component acting alone (end point) ([3]; contact time 48 hour): 19.4 ppm

C12-C16 alkyl dimethylbenzylammonium chloride [reference compound]
MIC of component acting alone (end point) ([5]; contact time 48 hour): 4.9 ppm
MIC of component acting alone (end point) ([4]; contact time 24 hour): 40.3 ppm
MIC of component acting alone (end point) ([4]; contact time 48 hour): 98 ppm
MIC of component acting alone (end point) [6]: 6.9 ppm
MIC of component acting alone (end point) ([1]; contact time 24 hour): 19.4 ppm
MIC of component acting alone (end point) ([1]; contact time 48 hour): 19.4 ppm
MIC of component acting alone (end point) ([2]; contact time 3 days): 194 ppm
MIC of component acting alone (end point) ([2]; contact time 7 days): 603 ppm
